Data published in PubChem BioAssay (NCI).
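Assay format: 96-well plates, 48-hour exposure. GI50 = concentration required for 50% inhibition of growth. At the TGI there is no net growth.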

Columns and labels:
Experiment in all cases: growth of human tumour cells (NCI), 48 h
COLO 205 colon = test system: COLO 205 colon
RXF 393 renal = test system: RXF 393 renal
OVCAR-3 ovarian = test system: OVCAR-3 ovarian
TK-10 renal = test system: TK-10 renal
M14 melanoma = test system: M14 melanoma
HS 578T breast = test system: HS 578T breast
HOP-92 NSCLC = test system: HOP-92 NSCLC
NCI-H226 lung = test system: NCI-H226 lung
786-0 renal = test system: 786-0 renal
MALME-3M melanoma = test system: MALME-3M melanoma
HOP-62 NSCLC = test system: HOP-62 NSCLC
NCI-H460 lung = test system: NCI-H460 lung
SK-MEL-28 melanoma = test system: SK-MEL-28 melanoma
A498 renal = test system: A498 renal
SK-MEL-5 melanoma = test system: SK-MEL-5 melanoma
HCT-15 colon = test system: HCT-15 colon
SF-268 CNS = test system: SF-268 CNS
SF-295 CNS = test system: SF-295 CNS
MCF7 breast = test system: MCF7 breast
SNB-75 CNS = test system: SNB-75 CNS
OVCAR-4 ovarian = test system: OVCAR-4 ovarian
SK-MEL-2 melanoma = test system: SK-MEL-2 melanoma
NCI/ADR-RES ovarian = test system: NCI/ADR-RES ovarian
OVCAR-8 ovarian = test system: OVCAR-8 ovarian
SW-620 colon = test system: SW-620 colon
HT29 colon = test system: HT29 colon
EKVX NSCLC = test system: EKVX NSCLC
SK-OV-3 ovarian = test system: SK-OV-3 ovarian
DU-145 prostate = test system: DU-145 prostate
A549 NSCLC = test system: A549 NSCLC
UACC-62 melanoma = test system: UACC-62 melanoma
MDA-MB-435 = test system: MDA-MB-435
K-562 leukemia = test system: K-562 leukemia
IGROV1 ovarian = test system: IGROV1 ovarian
LOX IMVI melanoma = test system: LOX IMVI melanoma
OVCAR-5 ovarian = test system: OVCAR-5 ovarian
SF-539 CNS = test system: SF-539 CNS
T-47D breast = test system: T-47D breast
HL-60(TB) leukemia = test system: HL-60(TB) leukemia
PC-3 prostate = test system: PC-3 prostate
ACHN renal = test system: ACHN renal
HCC-2998 colon = test system: HCC-2998 colon
MOLT-4 leukemia = test system: MOLT-4 leukemia
NCI-H522 lung = test system: NCI-H522 lung
NCI-H23 lung = test system: NCI-H23 lung
HCT-116 colon = test system: HCT-116 colon
BT-549 breast = test system: BT-549 breast
KM12 colon = test system: KM12 colon
MDA-MB-231 breast = test system: MDA-MB-231 breast
RPMI-8226 leukemia = test system: RPMI-8226 leukemia
CAKI-1 renal = test system: CAKI-1 renal
UACC-257 melanoma = test system: UACC-257 melanoma
SNB-19 CNS = test system: SNB-19 CNS
SN12C renal = test system: SN12C renal
SR leukemia = test system: SR leukemia
U251 CNS = test system: U251 CNS
CCRF-CEM leukemia = test system: CCRF-CEM leukemia
UO-31 renal = test system: UO-31 renal
MDA-N = test system: MDA-N

Compound: COc1cc(Nc2nccc(Nc3ccc4c(C)[nH]nc4c3)n2)cc(OC)c1OC
- GI50 (COLO 205 colon): 2.02 µM
- TGI (COLO 205 colon): 5.65 µM
- GI50 (RXF 393 renal): 0.683 µM
- TGI (RXF 393 renal): 3.21 µM
- GI50 (OVCAR-3 ovarian): 2.5 µM
- TGI (OVCAR-3 ovarian): 7.54 µM
- GI50 (TK-10 renal): 0.908 µM
- TGI (TK-10 renal): 3.88 µM
- GI50 (M14 melanoma): 1.35 µM
- TGI (M14 melanoma): 5.37 µM
- GI50 (HS 578T breast): 0.604 µM
- TGI (HS 578T breast): 5.15 µM
- GI50 (HOP-92 NSCLC): 0.191 µM
- TGI (HOP-92 NSCLC): 1.38 µM
- GI50 (NCI-H226 lung): 1.01 µM
- TGI (NCI-H226 lung): 7.1 µM
- GI50 (786-0 renal): 2.93 µM
- TGI (786-0 renal): 9.7 µM
- GI50 (MALME-3M melanoma): 1.4 µM
- TGI (MALME-3M melanoma): 10.2 µM
- GI50 (HOP-62 NSCLC): 1.08 µM
- TGI (HOP-62 NSCLC): 8.34 µM
- GI50 (NCI-H460 lung): 1.29 µM
- TGI (NCI-H460 lung): 5.3 µM
- GI50 (SK-MEL-28 melanoma): 3.28 µM
- TGI (SK-MEL-28 melanoma): 14.4 µM
- GI50 (A498 renal): 0.253 µM
- TGI (A498 renal): 1.94 µM
- GI50 (SK-MEL-5 melanoma): 2.69 µM
- TGI (SK-MEL-5 melanoma): 5.96 µM
- GI50 (HCT-15 colon): 2.84 µM
- TGI (HCT-15 colon): > 25 µM
- GI50 (SF-268 CNS): 2.42 µM
- TGI (SF-268 CNS): 7.89 µM
- GI50 (SF-295 CNS): 2.66 µM
- TGI (SF-295 CNS): 9.77 µM
- GI50 (MCF7 breast): 1.62 µM
- TGI (MCF7 breast): 16.9 µM
- GI50 (SNB-75 CNS): 0.486 µM
- TGI (SNB-75 CNS): 3.22 µM
- GI50 (OVCAR-4 ovarian): 4.04 µM
- TGI (OVCAR-4 ovarian): > 20.7 µM
- GI50 (SK-MEL-2 melanoma): 1.23 µM
- TGI (SK-MEL-2 melanoma): 5.09 µM
- GI50 (NCI/ADR-RES ovarian): 4.39 µM
- TGI (NCI/ADR-RES ovarian): 13.7 µM
- GI50 (OVCAR-8 ovarian): 3.39 µM
- TGI (OVCAR-8 ovarian): 10.2 µM
- GI50 (SW-620 colon): 2.71 µM
- TGI (SW-620 colon): 15.1 µM
- GI50 (HT29 colon): 0.916 µM
- TGI (HT29 colon): 4.49 µM
- GI50 (EKVX NSCLC): 1.87 µM
- TGI (EKVX NSCLC): 9.19 µM
- GI50 (SK-OV-3 ovarian): 1.53 µM
- TGI (SK-OV-3 ovarian): 6.64 µM
- GI50 (DU-145 prostate): 2.44 µM
- TGI (DU-145 prostate): 7.43 µM
- GI50 (A549 NSCLC): 1.26 µM
- TGI (A549 NSCLC): 5.41 µM
- GI50 (UACC-62 melanoma): 1.08 µM
- TGI (UACC-62 melanoma): 4.82 µM
- GI50 (MDA-MB-435): 0.666 µM
- TGI (MDA-MB-435): 3.09 µM
- GI50 (K-562 leukemia): 1.4 µM
- TGI (K-562 leukemia): > 25 µM
- GI50 (IGROV1 ovarian): 0.858 µM
- TGI (IGROV1 ovarian): 5.6 µM
- GI50 (LOX IMVI melanoma): 0.963 µM
- TGI (LOX IMVI melanoma): 3.98 µM
- GI50 (OVCAR-5 ovarian): 1.8 µM
- TGI (OVCAR-5 ovarian): 20.8 µM
- GI50 (SF-539 CNS): 1.72 µM
- TGI (SF-539 CNS): 6.11 µM
- GI50 (T-47D breast): 1.44 µM
- TGI (T-47D breast): 7.46 µM
- GI50 (HL-60(TB) leukemia): 3.31 µM
- TGI (HL-60(TB) leukemia): 9.04 µM
- GI50 (PC-3 prostate): 2.33 µM
- TGI (PC-3 prostate): > 20.5 µM
- GI50 (ACHN renal): 1.9 µM
- TGI (ACHN renal): > 25 µM
- GI50 (HCC-2998 colon): 3.17 µM
- TGI (HCC-2998 colon): 8.46 µM
- GI50 (MOLT-4 leukemia): 4.87 µM
- TGI (MOLT-4 leukemia): 19.2 µM
- GI50 (NCI-H522 lung): 1.52 µM
- TGI (NCI-H522 lung): 7.18 µM
- GI50 (NCI-H23 lung): 2.51 µM
- TGI (NCI-H23 lung): 7.82 µM
- GI50 (HCT-116 colon): 2.26 µM
- TGI (HCT-116 colon): 6.42 µM
- GI50 (BT-549 breast): 3.3 µM
- TGI (BT-549 breast): 11 µM
- GI50 (KM12 colon): 0.68 µM
- TGI (KM12 colon): 3.06 µM
- GI50 (MDA-MB-231 breast): 1.76 µM
- TGI (MDA-MB-231 breast): 10.5 µM
- GI50 (RPMI-8226 leukemia): 5.21 µM
- TGI (RPMI-8226 leukemia): 13.2 µM
- GI50 (CAKI-1 renal): 1.05 µM
- TGI (CAKI-1 renal): 4.62 µM
- GI50 (UACC-257 melanoma): 1.22 µM
- TGI (UACC-257 melanoma): 5.96 µM
- GI50 (SNB-19 CNS): 4.91 µM
- TGI (SNB-19 CNS): 19.9 µM
- GI50 (SN12C renal): 2.12 µM
- TGI (SN12C renal): 20.8 µM
- GI50 (SR leukemia): 1.42 µM
- TGI (SR leukemia): > 15.3 µM
- GI50 (U251 CNS): 3.92 µM
- TGI (U251 CNS): 17.8 µM
- GI50 (CCRF-CEM leukemia): 6 µM
- TGI (CCRF-CEM leukemia): > 25 µM
- GI50 (UO-31 renal): 0.842 µM
- TGI (UO-31 renal): 5.19 µM

Compound: CC(=O)N1C(=O)CC2(N=C(C)CC2=O)c2ccccc21 (centres undefined)
- TGI (COLO 205 colon): > 10 µM
- TGI (RXF 393 renal): > 10 µM
- TGI (OVCAR-3 ovarian): > 10 µM
- TGI (TK-10 renal): > 10 µM
- TGI (M14 melanoma): > 10 µM
- TGI (HOP-92 NSCLC): > 10 µM
- TGI (NCI-H226 lung): > 10 µM
- TGI (SK-MEL-28 melanoma): > 10 µM
- TGI (A498 renal): > 10 µM
- TGI (SK-MEL-5 melanoma): > 10 µM
- TGI (HCT-15 colon): > 10 µM
- TGI (SF-268 CNS): > 10 µM
- TGI (MDA-N): > 10 µM
- TGI (SF-295 CNS): > 10 µM
- TGI (SNB-75 CNS): > 10 µM
- TGI (OVCAR-4 ovarian): > 10 µM
- TGI (NCI/ADR-RES ovarian): > 10 µM
- TGI (OVCAR-8 ovarian): > 10 µM
- TGI (SW-620 colon): > 10 µM
- TGI (HT29 colon): > 10 µM
- TGI (EKVX NSCLC): > 10 µM
- TGI (DU-145 prostate): > 10 µM
- TGI (A549 NSCLC): > 10 µM
- TGI (MDA-MB-435): > 10 µM
- TGI (IGROV1 ovarian): > 10 µM
- TGI (OVCAR-5 ovarian): > 10 µM
- TGI (SF-539 CNS): > 10 µM
- TGI (PC-3 prostate): > 10 µM
- TGI (ACHN renal): > 10 µM
- TGI (NCI-H23 lung): > 10 µM
- TGI (HCT-116 colon): > 10 µM
- TGI (KM12 colon): > 10 µM
- TGI (MDA-MB-231 breast): > 10 µM
- TGI (CAKI-1 renal): > 10 µM
- TGI (SNB-19 CNS): > 10 µM
- TGI (SN12C renal): > 10 µM
- TGI (U251 CNS): > 10 µM
- TGI (UO-31 renal): > 10 µM
